7 compounds from ChEMBL document CHEMBL1201862, “PubChem BioAssay data set” (2004) can be followed below.

Some test systems named below: A549; ACHN; CAKI-1; CCRF-CEM; COLO 205; EKVX; HCC 2998; HL-60; HOP-62; K562; MOLT-4; NCI-H226; NCI-H460; NCI-H522; OVCAR-3; OVCAR-4; SK-MEL-2; SR; UACC-62; UO-31.
Common to all, as to assay: NCI-60 cell line screen, 48 h

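Compound exposure: 48 hours, 5 concentrations, 96-well plates. The concentration for 50% growth inhibition is given as GI50.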 Calls of active or inactive are those of the source. No stated cut-off is given here; in the data, active = GI50 up to about 1.1 µM and inactive = higher. Where only a bound is given, the exact number is not on record here.

As for `O=c1c2ncn(C3CCCCO3)c2n(-c2ccccc2)c(=S)n1-c1ccccc1` (stereo not given), the GI50 in the experiment on A549 is 78 µM (inactive); in the experiment with ACHN, 45.1 µM (inactive); with CAKI-1, 42.4 µM (inactive); in the experiment with CCRF-CEM, > 83 µM (inactive); in the experiment on COLO 205, > 71.4 µM (inactive); in the experiment on EKVX it was 39.5 µM (inactive). In addition, the GI50 in the experiment with HCC 2998 is > 70 µM (inactive); in the experiment with HL-60 it was > 64.4 µM (inactive); in the experiment on HOP-62, 10.4 µM (inactive); in the experiment with K562, > 68.7 µM (inactive); with MOLT-4, > 100 µM (inactive); with NCI-H226, 25.9 µM (inactive). For the same compound, the GI50 was > 54.8 µM (inactive) with NCI-H460; 39.6 µM (inactive) with NCI-H522; > 61.9 µM (inactive) in the experiment with OVCAR-3; 40.4 µM (inactive) in the experiment on OVCAR-4; 39.2 µM (inactive) in the experiment with SK-MEL-2; > 4.65 µM (inactive) with SR. The GI50 with UACC-62 was 18.5 µM (inactive); in the experiment with UO-31, 35.1 µM (inactive).
For `CSC1=C(C#N)C(=O)N(c2ccc(C)cc2)C(=O)C1C#N` (stereo not given), the GI50 was > 100 µM (inactive) in the experiment with A549; > 100 µM (inactive) with ACHN; 30.9 µM (inactive) with CAKI-1; > 100 µM (inactive) with CCRF-CEM; > 100 µM (inactive) in the experiment with COLO 205; > 100 µM (inactive) in the experiment with EKVX. The GI50 in the experiment with HCC 2998, with HL-60, with HOP-62, in the experiment on K562, in the experiment on MOLT-4 and in the experiment on NCI-H226 was > 100 µM (inactive) each time. The GI50 in the experiment with NCI-H460 is > 100 µM (inactive); in the experiment with NCI-H522 it was 29.7 µM (inactive); in the experiment with OVCAR-3, > 100 µM (inactive); with OVCAR-4, > 100 µM (inactive); in the experiment with SK-MEL-2 it was > 100 µM (inactive); in the experiment with SR, > 100 µM (inactive). In addition, the GI50 in the experiment on UACC-62 and in the experiment with UO-31 was > 100 µM (inactive) throughout.
As for `O=C(c1no[n+]([O-])c1C(=O)c1csc2ccccc12)c1csc2ccccc12`, the GI50 in the experiment on A549 was 10 µM (inactive); in the experiment on ACHN, 4.54 µM (inactive); in the experiment on CAKI-1, 0.82 µM (active); with CCRF-CEM, 0.0834 µM (active); in the experiment with COLO 205, 3.06 µM (inactive); in the experiment on EKVX, 3.55 µM (inactive). The GI50 in the experiment on HCC 2998 was 4.6 µM (inactive); in the experiment with HL-60 it was 0.0246 µM (active); in the experiment on HOP-62 it was 9.33 µM (inactive); in the experiment with K562, 1.52 µM (inactive); in the experiment with MOLT-4, 0.678 µM (active); in the experiment with NCI-H226 it was 12.9 µM (inactive). Besides, the GI50 in the experiment on NCI-H460 is 13.2 µM (inactive); in the experiment with NCI-H522, 0.652 µM (active); with OVCAR-3, 1.86 µM (inactive); in the experiment with OVCAR-4 it was 2.86 µM (inactive); in the experiment with SK-MEL-2 it was 6.68 µM (inactive); with SR it was 0.106 µM (active). Besides, the results for the GI50 in the experiment with UACC-62 and with UO-31 were 10.9 µM (inactive) and 0.505 µM (active), respectively.
Consider `COc1ccc(Cn2c(=O)c(OC)c(C)c3cc4ccccc4cc32)cc1`, for which the GI50 was 34.4 µM (inactive) in the experiment with A549; 34.6 µM (inactive) in the experiment with ACHN; 37.3 µM (inactive) in the experiment on CAKI-1; 23.3 µM (inactive) with CCRF-CEM; 20.1 µM (inactive) in the experiment on COLO 205; 6.55 µM (inactive) in the experiment on EKVX. Moreover, the GI50 in the experiment with HCC 2998 is 29 µM (inactive); with HL-60 it was 20 µM (inactive); in the experiment with HOP-62 it was 45.6 µM (inactive); in the experiment on K562, 28.3 µM (inactive); in the experiment on MOLT-4, 11.8 µM (inactive); with NCI-H226 it was 45.7 µM (inactive). The GI50 in the experiment on NCI-H460 is 17.3 µM (inactive); in the experiment with NCI-H522 it was 21.4 µM (inactive); with OVCAR-3, 19.9 µM (inactive); with OVCAR-4, 20.2 µM (inactive); in the experiment on SK-MEL-2, 17.2 µM (inactive); in the experiment on SR, 21.3 µM (inactive). Besides, the figures for the GI50 with UACC-62 and in the experiment with UO-31 were 13.2 µM (inactive) and 39.2 µM (inactive), respectively.
As for `CCOc1ccccc1/N=N/c1c(-c2ccccc2)nn(C(=O)CC(=O)Nc2cccc(C)c2)c1-c1ccccc1`, the GI50 in the experiment with A549 was > 100 µM (inactive); in the experiment with ACHN it was 54.3 µM (inactive); with CAKI-1, > 100 µM (inactive); in the experiment on CCRF-CEM, > 100 µM (inactive); in the experiment with COLO 205, > 100 µM (inactive); in the experiment on EKVX it was 56.6 µM (inactive). For the same compound, the GI50 is 22.7 µM (inactive) in the experiment on HCC 2998; > 100 µM (inactive) with HL-60; > 100 µM (inactive) with HOP-62; 62.7 µM (inactive) in the experiment with K562; > 100 µM (inactive) in the experiment with MOLT-4; > 100 µM (inactive) with NCI-H226. The GI50 in the experiment on NCI-H460, with NCI-H522, in the experiment on OVCAR-3, in the experiment on OVCAR-4, in the experiment with SK-MEL-2 and with SR was > 100 µM (inactive) in each case. Further, the GI50 was > 100 µM (inactive) with UACC-62 and 35.2 µM (inactive) in the experiment on UO-31.
Take `CSC1=Nc2ccccc2N=C(c2ccccc2)C1`: the GI50 is 80.2 µM (inactive) in the experiment with A549; > 100 µM (inactive) with ACHN; 75.2 µM (inactive) in the experiment on CAKI-1; 21 µM (inactive) in the experiment with CCRF-CEM; 21.2 µM (inactive) with COLO 205; 54.8 µM (inactive) in the experiment with EKVX. Further, the GI50 in the experiment with HCC 2998 is 62.2 µM (inactive); in the experiment with HL-60 it was 15.3 µM (inactive); with HOP-62, > 100 µM (inactive); with K562 it was 34.6 µM (inactive); in the experiment on MOLT-4 it was 27.9 µM (inactive); with NCI-H226 it was > 100 µM (inactive). The GI50 in the experiment with NCI-H460 was 19.1 µM (inactive); with NCI-H522 it was 37.6 µM (inactive); in the experiment with OVCAR-3, 30.7 µM (inactive); in the experiment on OVCAR-4 it was > 100 µM (inactive); in the experiment on SK-MEL-2 it was > 100 µM (inactive); with SR, 24 µM (inactive). Besides, the GI50 in the experiment on UACC-62 is > 100 µM (inactive); in the experiment on UO-31, 38 µM (inactive).
As to `CCCC(CC)c1cc(O)c(O)cc1C(CC)CCC` (stereo not given), the GI50 in the experiment with A549, in the experiment on ACHN, in the experiment on CAKI-1, in the experiment on CCRF-CEM, in the experiment on COLO 205 and with EKVX was > 10 µM (inactive) in each case. The GI50 in the experiment on HCC 2998, in the experiment with HL-60, in the experiment with HOP-62, in the experiment on K562, with MOLT-4 and in the experiment on NCI-H226 was > 10 µM (inactive) each time. Further, the GI50 in the experiment with NCI-H460, in the experiment with NCI-H522, in the experiment with OVCAR-3, in the experiment on OVCAR-4, in the experiment on SK-MEL-2 and with SR was > 10 µM (inactive) each time. Moreover, the GI50 in the experiment on UACC-62 and in the experiment with UO-31 was > 10 µM (inactive) in each case.
